Measurements as given in patent US20240398773A1, “COMPOSITIONS COMPRISING OTESECONAZOLE” (Mycovia Pharmaceuticals, Inc., priority 2021, published 2024).

Test system: Candida species
Experiment: Phase 2a dose-ranging study in moderate-to-severe acute VVC, effective therapeutic cure
Format: in vivo, human
Details: comparator arm, single dose of fluconazole 150 mg; Per Protocol population
Experimental: Oteseconazole has previously been evaluated in a Phase 2a multi-center, randomized, double-blind, active-controlled, parallel-group, dose-ranging study in patients with moderate-to-severe acute VVC. A total of 55 subjects with moderate-to-severe acute VVC (severity score ≥6 and a positive fungal KOH test) participated in the study across 4 dose groups: 1) oteseconazole 300 mg qd for 3 days: 2) 600 mg qd for 3 days: 3) 600 mg bid for 3 days; or 4) a single dose of fluconazole 150 mg followed by matching placebo. […] No safety signals of clinical concern were observed from the safety assessments.
The efficacy of oteseconazole in the treatment of moderate-to-severe acute VVC was evaluated at the TOC visit in the Per Protocol population at the Day 28 test of cure (TOC) visit was, 87%, 86%, 86%, and 75% of subjects receiving the low, mid-, or high-dose oteseconazole or comparator arm of fluconazole, respectively, achieved an effective therapeutic cure (defined as having a total clinical signs and symptoms severity score of ≤1 and a negative culture for Candida species) in the Per Protocol population

For `OC(Cn1cncn1)(Cn1cncn1)c1ccc(F)cc1F` [fluconazole, reference compound], the “subjects achieving effective therapeutic cure at Day 28 TOC visit” value was 75%.
